Reference: publication PMC5312321, “A general strategy to optimize immunogenicity of HLA-B*0702 restricted cryptic peptides from tumor associated antigens: Design of universal neo-antigen like tumor vaccines for HLA-B*0702 positive patients” (Oncotarget, 2016)

Columns and labels:
[1] = target: T1, HLA-B*0702 (Homo sapiens, UniProt P01889); test: Measurement of peptide relative affinity to HLA-B*0702 (surface expression on T2-B7 cells); assay type: cell-based
T1 construct: expressed in transfected cells; host or cells: human T2-B7 cells (T2 transfected with HLA-B*0702)
Description: The protocol used has been described previously. Briefly, T2-B7 cells were incubated at 37°C for 16 hours with peptides concentrations ranging from 100 μM to 0.1 μM (100 μM, 10 μM, 1 μM and 0.1μM), and then stained with ME-1 monoclonal antibody (mAb) to quantify the surface expression of HLA-B*0702. For each peptide concentration, the HLA-B*0702 specific staining was calculated as the percentage of staining obtained with 100 μM of the reference peptide CMV265–274 (R10V; […], SEQ ID NO: 9). The relative affinity (RA) was determined as: RA = (Concentration of each peptide that induces 20% of HLA-B*0702-expression/Concentration of the reference R10V peptide that induces 20% of HLA-B*0702 expression). In case of non-binders peptide, RA is not evaluable since the 20% of HLA-B*0702 expression is not reach even with the highest concentration of peptide.

[2] = system: CD8+ T cells from healthy donors; test: In vitro induction of specific CTLs from PBMC of healthy HLA-B*0702 donors (IFNγ intracellular staining or ELISPOT); assay type: cell-based, human; settings: for immunogenicity in vitro in human PBMC (in words): CD8+ T cells from healthy donors, four stimulations with peptide loaded autologous DC; for Immunogenicity against optimized peptide (number of positive culture/number of total cultures): human healthy donor PBMC stimulated with optimized peptide loaded DC, T2-B7 cells loaded with optimized peptide; for Immunogenicity against native peptide (number of positive culture/number of total cultures): human healthy donor PBMC stimulated with optimized peptide, T2-B7 cells loaded with corresponding native peptide
Description: CD8+ T cells from healthy donors were in vitro stimulated with autologous dendritic cells loaded with each optimized cryptic peptide. After four stimulations, proliferating cells were tested for the presence of IFNγ producing CTLs upon stimulation with T2-B7 cells loaded with optimized or native peptides either by intracellular IFNγ staining or by IFNγ ELISPOT assay.
PBMC were collected by leukapheresis from healthy HLA-A*B702 volunteers. Dendritic cells (DC) were produced from adherent cells cultured with 500 IU/ml GM-CSF and 500 IU/ml IL-4, in complete synthetic medium (AIMV) for seven days. On day 7, DCs were pulsed with 10 μM of peptide during 2 hours and CD8^+ cells were purified by negative selection with CD8 Dynabeads Untouched Human CD8. CD8^+ cells (2 × 10^5) + CD8^− cells (6 × 10^4) were stimulated with 3 × 10^4 peptide-pulsed DC in AIMV medium supplemented with 1000 IU/ml IL-6 and 5 IU/ml IL-12 in round-bottomed 96-well plates.
From day 7, cultures were stimulated weekly with peptide-loaded DC in the presence of 20 IU/ml IL-2 and 10 ng/ml IL-7, 1 μg/ml anti-CD40 and 500 IU/ml IFNγ.
After the third stimulation, CD8 cells were maintained in AIMV supplemented with 20 IU/ml IL-2 during 7 days. Cultures were starved overnight with AIMV and then were tested in an intracellular IFNγ and an IFNγ ELISpot assay.
Stimulated T cells (10^5) from each pool were incubated with 2 × 10^5 T2 cells loaded with stimulating peptide in the presence of 20 μg/ml Brefeldin-A (Sigma, Oakville, Canada). Six hours later they were washed, stained with r-phycoerythrin-conjugated anti-CD8 antibody (Caltag Laboratories, Burlingame, CA, USA) in PBS for 25 min at 4°C, washed again, and fixed with 4% PFA. The cells were then permeabilized with PBS, 0.5% BSA, 0.2% saponin (Sigma, Oakville, Canada), and labelled with an allophycocyanin-conjugated anti-IFNγ mAb (PharMingen, Mississauga, Canada) for 25 min at 4°C before analysis with a FACSCalibur® flow cytometer.
Stimulated T cells were splited in four pools and IFNγ producing T cells was quantified in each pool by ELISpot using the Diaclone Kit Human IFNγ ELISpot (Besançon, France) according to manufacturer's recommendations. 250 000 cells were distributed per well and tested for the recognition of 10 μM of either the native or optimized peptide. Positive control was Concanavalin A and negative control was medium alone or an irrelevant peptide. All conditions were tested in sixplicates.

[3] = system: HLA-B*0702 transgenic mice; test: Vaccination of HLA-B*0702 transgenic mice; specific CTLs detected by cytotoxicity or IFNγ ELISPOT; assay type: in vivo, mouse; settings: for cross recognition of the native peptide by CTLs induced by the optimized peptide in mice (in words): HLA-B*0702 transgenic mice, target cells loaded with native peptide; for Immunogenicity against optimized peptide (responding mice/vaccinated mice): cytotoxicity or IFNγ ELISPOT against target cells loaded with the optimized peptide; for immunogenicity in HLA-B*0702 transgenic mice (in words): specific CTL induction after vaccination, cytotoxicity (ratio 30/1) or IFNγ ELISpot
Description: The HLA-B7 H-2 class-I knockout mice were previously described.
Mice were injected subcutaneously with 100 μg of peptide emulsified in Incomplete Freund's Adjuvant (IFA) in the presence of 150 μg of the I-A^b restricted HBVcore128 T helper epitope ([…]) twice at two weeks interval.
A particular protocol was applied for MAGE-A 274L9, with two injections of this peptide at two weeks interval and 15 days later one injection with each one of the native peptide.
On day 6 of culture the bulk responder populations were tested for specific cytotoxicity. […] Percentage of specific lysis was determined as: % Lysis = (Experimental Release-Spontaneous Release) / (Maximal Release-Spontaneous Release) × 100. Spontaneous release is obtained using medium only, maximum release with HCl 0.1 M.
Seven days after the last vaccination, spleens were removed and T cells were isolated by Ficoll centrifugation and tested ex vivo for the recognition of 10 μM of either the native or optimized peptide. IFNγ producing T cells were quantified by ELISpot using the Diaclone Kit Murine IFNγ ELISpot (Besançon, France) according to manufacturer's recommendations. 250 000 spleen T cells were distributed per well and tested for the recognition of 10 μM of either the native or optimized peptide. Positive control was Concanavalin A and negative control was medium alone. All conditions were tested in sixplicates.

[4] = mice vaccinated twice with the optimized peptide

Sequence	RA (Relative Affinity) ([1]; 37°C 16 hours, peptide 100 μM to 0.1 μM, ME-1 mAb staining, RA = concentration inducing 20% of HLA-B*0702 expression / that of reference R10V, mean ± SD, at least three experiments, ≥ 10 = 10 or not measurable, SD)	binding to / affinity for HLA-B*0702 (in words) ([1]; relative to reference peptide R10V)	immunogenicity in vitro in human PBMC (in words) [2]	Immunogenicity against optimized peptide (number of positive culture/number of total cultures) [2]	Immunogenicity against native peptide (number of positive culture/number of total cultures) [2]	cross recognition of the native peptide by CTLs induced by the optimized peptide in mice (in words) [3]	(Number of spots – background)/10^6 cells ([3]; IFNγ ELISpot, Figure 3, value printed in the picture, mouse vaccinated twice at two weeks interval, statistically significant (*))	Immunogenicity against optimized peptide (responding mice/vaccinated mice) [3, 4]	Immunogenicity against native peptide MAGE-A1_267 (responding mice/vaccinated mice) ([3]; mice vaccinated with optimized peptide, target cells loaded with MAGE-A1_267)	Immunogenicity against native peptide MAGE-A2_274 (responding mice/vaccinated mice) ([3]; mice vaccinated with optimized peptide, target cells loaded with MAGE-A2_274)	Immunogenicity against native peptide MAGE-A3_274 (responding mice/vaccinated mice) ([3]; mice vaccinated with optimized peptide, target cells loaded with MAGE-A3_274)	immunogenicity in HLA-B*0702 transgenic mice (in words) [3]	cross recognition of native peptide by human CTLs induced by the optimized peptide (in words) ([2]; T2-B7 cells loaded with optimized or native peptides, IFNγ staining or ELISPOT)	Immunogenicity against native peptide MAGE-A1_269 (positive culture/total cultures) ([2]; human PBMC stimulated with optimized peptide, targets loaded with MAGE-A1_269 as printed)	Immunogenicity against native peptide MAGE-A2_274 (positive culture/total cultures) ([2]; human PBMC stimulated with optimized peptide, targets loaded with MAGE-A2_274)	Immunogenicity against native peptide MAGE-A3_274 (positive culture/total cultures) ([2]; human PBMC stimulated with optimized peptide, targets loaded with MAGE-A3_274)	Immunogenicity against native peptide (responding mice/vaccinated mice) ([3]; mice vaccinated twice with the optimized peptide, target cells loaded with the corresponding native peptide)
APRRLVQLL [TERT444A1, optimized TERT444, alanine at position 1]	1.4 ± 0.83	high HLA-B*0702 affinity	confirmed	1/2	2/2	–	–	–	–	–	–	–	–	–	–	–	–
GPRALVETL [MAGE-A274 L9, optimized peptide derived from MAGE-A3_274, leucine at position 9]	–	–	confirmed	2/4	–	able to recognize target cells loaded with MAGE-A3_274 but also MAGE-A1_267 and MAGE-A2_274	3023 /10^6 cells	18/18	3/8	3/5	4/5	immunogenic	cross recognition of MAGE-A3_274 and MAGE-A2_274 was confirmed but not for MAGE-A1_267	0/4	2/4	2/4	–
SPRLQLSNL [CEA188L9, optimized CEA188 modified at last position by a leucine]	–	–	confirmed	1/3	2/3	able to recognize target cells loaded with their corresponding native peptide	–	6/6	–	–	–	immunogenic	–	–	–	–	6/6
